What was measured:
JAK3 = target: T1, JAK3 (Homo sapiens, UniProt P52333); experiment: Radiometric protein kinase assay (33PanQinase, ProQinase), JAK3; type: biochemical; parameters: endogenous in cells; host or cells: mixed Molt4/Ramos cell lysate (1:2); details: read-out: JAK3 enzyme assay IC50
T1 sequence (P52333 1-1124): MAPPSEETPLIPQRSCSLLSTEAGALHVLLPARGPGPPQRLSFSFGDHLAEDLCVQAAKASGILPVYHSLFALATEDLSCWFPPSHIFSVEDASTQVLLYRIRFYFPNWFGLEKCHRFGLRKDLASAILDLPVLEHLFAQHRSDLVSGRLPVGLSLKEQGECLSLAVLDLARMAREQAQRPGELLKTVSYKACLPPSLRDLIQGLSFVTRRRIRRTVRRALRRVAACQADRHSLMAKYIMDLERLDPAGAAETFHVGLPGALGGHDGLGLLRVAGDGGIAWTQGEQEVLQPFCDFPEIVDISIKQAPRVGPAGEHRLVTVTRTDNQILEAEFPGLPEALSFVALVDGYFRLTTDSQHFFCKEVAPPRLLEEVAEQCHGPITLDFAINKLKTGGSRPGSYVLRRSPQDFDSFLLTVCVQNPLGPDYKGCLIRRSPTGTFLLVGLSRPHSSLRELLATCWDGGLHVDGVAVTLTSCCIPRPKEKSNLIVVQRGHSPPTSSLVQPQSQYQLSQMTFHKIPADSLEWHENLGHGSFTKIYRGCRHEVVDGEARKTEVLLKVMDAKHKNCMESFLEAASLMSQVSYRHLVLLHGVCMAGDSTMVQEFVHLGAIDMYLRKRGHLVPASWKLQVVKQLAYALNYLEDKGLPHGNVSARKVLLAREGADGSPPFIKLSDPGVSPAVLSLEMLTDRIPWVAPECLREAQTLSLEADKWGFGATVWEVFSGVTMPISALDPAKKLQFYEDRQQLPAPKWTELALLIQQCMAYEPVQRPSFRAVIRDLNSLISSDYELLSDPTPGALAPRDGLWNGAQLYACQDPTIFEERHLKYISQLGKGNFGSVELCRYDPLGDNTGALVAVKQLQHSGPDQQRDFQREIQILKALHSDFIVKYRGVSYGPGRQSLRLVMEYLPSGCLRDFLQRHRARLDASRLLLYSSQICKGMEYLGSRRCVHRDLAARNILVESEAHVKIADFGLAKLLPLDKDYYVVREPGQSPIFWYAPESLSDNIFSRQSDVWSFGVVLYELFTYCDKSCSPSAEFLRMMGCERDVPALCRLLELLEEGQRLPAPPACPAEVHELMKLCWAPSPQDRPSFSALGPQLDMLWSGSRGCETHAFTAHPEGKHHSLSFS
Experimental: (§1) A radiometric protein kinase assay (^33PanQinase® Activity Assay; ProQinase GmbH, Freiburg, Germany) was used for measuring the kinase activity of the protein kinases BLK, BTK, ITK and JAK3. All kinase assays were performed in 96-well FlashPlates™ from PerkinElmer (Boston, Mass., USA) in a 50 μl reaction volume. The reaction cocktail was pipetted in four steps in the following order: • 20 μl of assay buffer (standard buffer) • 5 μl of ATP solution (in H2O) • 5 μl of test compound (in 10% DMSO) • 10 μl of substrate/10 μl of enzyme solution (premixed)
(§2) The reaction cocktails were incubated at 30° C. for 60 minutes. The reaction was stopped with 50 μl of 2% (v/v) H3PO4, plates were aspirated and washed two times with 200 μl 0.9% (w/v) NaCl. Incorporation of ^33Pi was determined with a microplate scintillation counter (Microbeta, Wallac). All assays were performed with a BeckmanCoulter/SAGIAN™ Core System.

ITK = target: T2, ITK (Homo sapiens, UniProt Q08881); experiment: Radiometric protein kinase assay (33PanQinase, ProQinase), ITK; type: biochemical; details: ATP at apparent Km (1.0 μM); for IC50: read-out: ITK enzyme assay IC50
T2 construct: purchased ProQinase GmbH, Freiburg, Germany
T2 sequence (Q08881 1-620): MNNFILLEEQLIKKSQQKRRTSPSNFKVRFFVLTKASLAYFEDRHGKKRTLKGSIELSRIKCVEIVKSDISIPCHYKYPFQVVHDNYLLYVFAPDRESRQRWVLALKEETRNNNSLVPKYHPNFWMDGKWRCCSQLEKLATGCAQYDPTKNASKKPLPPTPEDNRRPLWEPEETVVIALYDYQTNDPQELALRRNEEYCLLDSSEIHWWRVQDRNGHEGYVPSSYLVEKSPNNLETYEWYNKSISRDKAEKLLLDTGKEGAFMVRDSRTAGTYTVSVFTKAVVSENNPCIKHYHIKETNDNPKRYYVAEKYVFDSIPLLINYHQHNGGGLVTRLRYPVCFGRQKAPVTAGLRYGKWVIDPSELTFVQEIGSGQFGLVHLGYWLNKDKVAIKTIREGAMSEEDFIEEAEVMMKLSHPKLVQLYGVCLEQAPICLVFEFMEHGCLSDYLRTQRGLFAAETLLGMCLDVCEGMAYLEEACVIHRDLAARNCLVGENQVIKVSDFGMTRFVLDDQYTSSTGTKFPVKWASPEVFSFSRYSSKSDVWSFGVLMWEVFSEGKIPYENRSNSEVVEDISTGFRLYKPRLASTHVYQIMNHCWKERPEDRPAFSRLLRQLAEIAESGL
Experimental: as §1, §2

C=CC(=O)Nc1cccc(Cn2ncc3cnc(Nc4cnn(C)c4)nc32)c1 [Example 1, N-(3-((6-((1-Methyl-1H-pyrazol-4-yl)amino)-1H-pyrazolo[3,4-d]pyrimidin-1-yl)methyl)phenyl)acrylamide]
IC50 (JAK3): 3 nM | IC50 (ITK): 230 nM

C#CC(=O)Nc1cccc(Cn2ncc3cnc(Nc4cnn(C)c4)nc32)c1 [Example 3, N-(3-((6-((1-Methyl-1H-pyrazol-4-yl)amino)-1H-pyrazolo[3,4-d]pyrimidin-1-yl)methyl)phenyl)propiolamide]
IC50 (JAK3): 4 nM | IC50 (ITK): 3 nM

C=CS(=O)(=O)Nc1cccc(Cn2ncc3cnc(Nc4cnn(C)c4)nc32)c1 [Example 4, N-(3-((6-((1-Methyl-1H-pyrazol-4-yl)amino)-1H-pyrazolo[3,4-d]pyrimidin-1-yl)methyl)phenyl)ethenesulfonamide]
IC50 (JAK3): 7 nM | IC50 (ITK): 80 nM

CC(=O)Nc1cccc(Cn2ncc3cnc(Nc4cnn(C)c4)nc32)c1 [compound 2, N-(3-((6-((1-methyl-1H-pyrazol-4-yl)amino)-1H-pyrazolo[3,4-d]pyrimidin-1-yl)methyl)phenyl)acetamide, reference compound]
IC50 (JAK3): 290 nM | ITK enzyme assay IC50 (ITK): inactive

From patent US20140323504A1, “Pyrazolo[4,3-c]Pyridine Derivatives As Kinase Inhibitors” (Cellzome Limited, priority 2011, published 2014)
